Test results reported in patent US11820747B2, “PPARG inverse agonists and uses thereof” (Flare Therapeutics Inc., priority 2021, dated 2023).

Key:
[1] = target: T1, PPARG/RXRA LBD heterodimer (Homo sapiens, UniProt P37231); assay: PPARγ-NCOR1 recruitment assay (TR-FRET, biotinylated NCOR1 ID2 peptide); assay type: binding; conditions: for Emax: 3 h, maximal extent, T0070907 defined as 100%, DMSO 0%, read-out: % NCOR recruitment relative to T907; for EC50: TR-FRET, 80 nM Rosiglitazone, 3 hours incubation, read-out: PPARG-NCOR recruitment assay EC50
T1 construct: His-TEV-Q203-Y477: Uniprot ID P37231-2; made in house; host or cells: E. coli
Method: PPARγ-NCOR1 Recruitment Assay:
Compound potency (EC50) and maximal extent of NCOR1 recruitment to PPARG were assessed a TR-FRET binding assay measuring association of a biotinylated NCOR1 ID2 peptide (Biotin-[…]-amide) to PPARG/RXRA LBD heterodimer. Specifically, a 20 microliters of TR-FRET master mix consisting of 2 nM WT PPARG LBD (E. coli expressed, His-TEV-Q203-Y477: Uniprot ID P37231-2), 2 nM WT RXRA LBD or mutant S427F RXRA LBD (E. coli expressed, Flag-TEV-E228-T462; […]. Mixtures were incubated for 3 hours and read in an EnVision plate reader (Perkin Elmer) with […]. To determine the potency (EC50) and extent of NCOR1 recruitment, TR-FRET ratios were normalized to the average ratio of DMSO control wells (0%) and to the average maximum ratio for positive control compound (T0070907 (2-chloro-5-nitro-N-4-pyridinyl-benzamide); defined as 100%) in CDD Vault and analyzed using the Levenberg-Marquardt algorithm.
T1 sequence (O75376 2251-2273 partner, one chain of several): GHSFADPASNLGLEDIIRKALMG

[2] = test system: ANGPTL4, a PPARG target gene, in HT1197 (RXRA S427F mutation) cells; assay: Bladder cancer pharmacodynamic assay, HT1197 cell assay (quantitative PCR of PPARG target genes); assay type: cell-based; conditions: Homo sapiens; for inhibition at 0.1 µM: 100 nM compound, 24 hours, percentage of a DMSO control; for EC50: 24 hours treatment, qPCR
Method: Bladder Cancer Pharmacodynamic Assay
5637 (PPARG amplified) and HT1197 (RXRA S427F mutation) cells were used for assessment of modulation of PPARG target genes using quantitative PCR. Cells were treated for 24 hours with PPARG inverse agonists prior to analysis of FABP4 (IDT, Cat: Hs.PT 58.20106818) and ANGPTL4 (IDT, Cat: Hs.PT 58.25480012) expression, with expression of the housekeeping gene TBP (IDT, Cat: Hs.PT 58v.39858774) used to normalize expression across samples. Quantitative PCR was performed using an ABI QuantStudio 7 Flex Reaction system. Data were analyzed and reported relative to DMSO control using the comparative Ct method (ΔΔCt).

[3] = target: T2, PPARG/RXRA LBD heterodimer (Homo sapiens, UniProt P37231); assay: PPARγ-MED1 blockade assay (TR-FRET, biotinylated MED1 LxxLL peptide); assay type: binding; conditions: for Emax: 3 h, maximal extent, GW9662 defined as 100%, DMSO 0%, read-out: % MED1 blockade relative to GW9662; for EC50: TR-FRET, 80 nM Rosiglitazone, 3 hours incubation
T2 construct: His-TEV-Q203-Y477; Uniprot ID P37231-2; made in house; host or cells: E. coli
T2 sequence (P37231 203-477 isoform P37231-2): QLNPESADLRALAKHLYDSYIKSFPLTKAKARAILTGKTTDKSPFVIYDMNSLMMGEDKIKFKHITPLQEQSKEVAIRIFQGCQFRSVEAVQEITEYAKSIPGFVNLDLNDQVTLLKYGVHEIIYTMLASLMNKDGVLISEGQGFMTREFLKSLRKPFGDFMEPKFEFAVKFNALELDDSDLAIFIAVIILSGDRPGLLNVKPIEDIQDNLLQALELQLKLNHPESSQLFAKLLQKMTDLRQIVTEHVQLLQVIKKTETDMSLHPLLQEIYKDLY
T2 sequence (P19793 228-462 partner limits assumed): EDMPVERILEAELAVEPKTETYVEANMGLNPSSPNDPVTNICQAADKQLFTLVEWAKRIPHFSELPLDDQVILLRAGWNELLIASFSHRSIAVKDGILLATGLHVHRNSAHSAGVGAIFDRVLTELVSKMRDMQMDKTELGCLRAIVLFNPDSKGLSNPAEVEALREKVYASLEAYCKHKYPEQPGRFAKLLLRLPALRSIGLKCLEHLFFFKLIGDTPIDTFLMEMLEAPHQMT
Method: PPARγ-MED1 Blockade Assay:
Compound potency (ICs) and maximal extent of MED1 repulsion to PPARG were assessed a TR-FRET binding assay measuring association of a biotinylated MED1 LxxLL peptide (Biotin-[…]-amide) to PPARG/RXRA LBD heterodimer. Specifically, a 20 microliters of TR-FRET master mix consisting of 2 nM WT PPARG LBD (E. coli expressed, His-TEV-Q203-Y477; Uniprot ID P37231-2), 2 nM WT RXRA LBD (E. coli expressed, Flag-TEV-E228-T462; […]. Mixtures were incubated for 3 hours and read in an EnVision plate reader (Perkin Elmer) with […]. To determine the potency (ICso) and extent of MED1 repulsion. TR-FRET ratios were normalized to the average ratio of DMSO control wells (0%) and to the average minimum ratio for positive control compound (GW9662 (2-chloro-5-nitrobenzanilide); defined as 100%/6) in CDD Vault and analyzed using the Levenberg-Marquardt algorithm.

Row | Emax [1] [%] | EC50 [1] [nM] | EC50 [2] [nM] | Emax [3] [%] | EC50 [3] [nM] | Structure (SMILES) | inhibition at 0.1 µM [2] [%]
1 | > 100 | 100 to 1000 | 1.3 | > 100 | 100 to 1000 | CS(=O)(=O)c1ccc(C#N)cc1-c1cc(=O)c2c(F)cc(F)cc2[nH]1 [Example 1, 3-(5,7-difluoro-4-oxo-1,4-dihydroquinolin-2-yl)-4-(methylsulfonyl)benzonitrile] | 88
2 | > 100 | 100 to 1000 | – | > 100 | 100 to 1000 | CCS(=O)(=O)c1ccc(C#N)cc1-c1cc(=O)c2c(F)cc(F)cc2[nH]1 [Example 2, 3-(5,7-difluoro-4-oxo-1,4-dihydroquinolin-2-yl)-4-(ethylsulfonyl)-benzonitrile] | 86
3 | > 100 | 100 to 1000 | – | > 100 | 100 to 1000 | CN1CCN(c2c(F)cc3[nH]c(-c4cc(C#N)ccc4S(C)(=O)=O)cc(=O)c3c2F)CC1 [Example 3, 3-(5,7-difluoro-6-(4-methylpiperazin-1-yl)-4-oxo-1,4-dihydroquinolin-2-yl)-4-(methylsulfonyl)-benzonitrile] | 66
4 | > 100 | 100 to 1000 | – | > 100 | 100 to 1000 | N#Cc1ccc(S(=O)(=O)CC(F)(F)F)c(-c2cc(=O)c3c(F)cc(F)cc3[nH]2)c1 [Example 4, 3-(5,7-difluoro-4-oxo-1,4-dihydroquinolin-2-yl)-4-((2,2,2-trifluoroethyl)sulfonyl)-benzonitrile] | 14
5 | > 100 | 1000 to 10000 | – | > 100 | 1000 to 10000 | N#Cc1ccc([S+]([O-])CC(F)(F)F)c(-c2cc(=O)c3c(F)cc(F)cc3[nH]2)c1 (centres unmarked) [Example 5] | 15
6 | – | > 10000 | – | – | > 10000 | CSc1ccc(C#N)cc1-c1cc(=O)c2c(F)cc(F)cc2[nH]1 [Example 6, 3-(5,7-difluoro-4-oxo-1,4-dihydroquinolin-2-yl)-4-(methylthio)benzonitrile] | 17
7 | > 100 | 1000 to 10000 | – | > 100 | > 10000 | C[S+]([O-])c1ccc(C#N)cc1-c1cc(=O)c2c(F)cc(F)cc2[nH]1 (centres unmarked) [Example 7, 3-(5,7-difluoro-4-oxo-1,4-dihydroquinolin-2-yl)-4-(methylsulfinyl)benzonitrile] | 26
8 | > 100 | 100 to 1000 | – | > 100 | 100 to 1000 | CS(=N)(=O)c1ccc(C#N)cc1-c1cc(=O)c2c(F)cc(F)cc2[nH]1 (centres unmarked) [Example 8, 3-(5,7-difluoro-4-oxo-1,4-dihydroquinolin-2-yl)-4-(S-methylsulfonimidoyl)benzonitrile] | 84
9 | > 100 | 10 to 100 | 0.9 | > 100 | 10 to 100 | CS(=O)(=O)c1ccc(C#N)cc1-c1cc(=O)c2ccc(Cl)cc2[nH]1 [Example 9, 3-(7-chloro-4-oxo-1,4-dihydroquinolin-2-yl)-4-(methylsulfonyl)benzonitrile] | 85
10 | > 100 | 10 to 100 | 1.6 | > 100 | 10 to 100 | CS(=O)(=O)c1ccc(C#N)cc1-c1cc(=O)c2c(F)cc(Cl)cc2[nH]1 [Example 10] | 89
11 | > 100 | < 10 | 0.07 | > 100 | < 10 | N#Cc1ccc(S(=O)(=O)C(F)(F)F)c(-c2cc(=O)c3c(F)cc(F)cc3[nH]2)c1 [Example 11] | 88
12 | < 100 | > 10000 | – | < 100 | > 10000 | CC(C)S(=O)(=O)c1ccc(C#N)cc1-c1cc(=O)c2c(F)cc(F)cc2[nH]1 [Example 12, 3-(5,7-difluoro-4-oxo-1,4-dihydroquinolin-2-yl)-4-(isopropylsulfonyl)benzonitrile] | 67
13 | < 100 | 1000 to 10000 | – | < 100 | 1000 to 10000 | CC(C)CS(=O)(=O)c1ccc(C#N)cc1-c1cc(=O)c2c(F)cc(F)cc2[nH]1 [Example 13, 3-5,7-difluoro-4-oxo-1,4-dihydroquinolin-2-yl-4-(isobutylsulfonyl)benzonitrile] | 77
14 | > 100 | 10 to 100 | – | > 100 | 10 to 100 | Cn1cc(-c2c(F)cc3[nH]c(-c4cc(C#N)ccc4S(C)(=O)=O)cc(=O)c3c2F)cn1 [Example 14] | 89
15 | > 100 | 10 to 100 | – | > 100 | 10 to 100 | Cc1ccc(-c2c(F)cc3[nH]c(-c4cc(C#N)ccc4S(C)(=O)=O)cc(=O)c3c2F)cn1 [Example 15, 3-(5,7-difluoro-6-(6-methylpyridin-3-yl)-4-oxo-1,4-dihydroquinolin-2-yl)-4-(methylsulfonyl)benzonitrile] | 68
